From patent publication US20170184612A1, “USE OF LEUKOCYTES AND NOVEL BIOMARKERS IN THE DIAGNOSIS, CONFIRMATION, AND TREATMENT OF A NEUROLOGICAL DISORDER” (The Trustees of Columbia University in the City of New York, priority 2014, published 2017)

How the values were obtained:
Format in all cases: cell-based, human
[1] = system: peripheral blood mononuclear cells (PBMC), T cells; experiment: ELISpot assay, IFNg and IL-5 reactivity combined, T cell response to α-syn epitopes; conditions: for Peptides + in Patients & Normals: flag 1/0 per peptide
Experimental: Blood from age matched controls and PD patients were obtained and mononuclear cells were isolated by gradient centrifugation.
Release of the cytokines gamma-interferon, which measures activation of CD4+ and/or CD8+ T cells, and the interleukin, IL-5, which measures activation of CD4+ T cells was measured by ELISpot assay. […] After 22 hours of stimulation at 37 C, the cells were removed and release of cytokines was measured by colorimetric detection of spot-forming cells (SFC). Confirmed release of cytokine is determined by the presence of a minimum of 20 SFC per million cells.
The binding algorithms in SubAim 1 predict how well the peptides would bind to MHC if present, but not if they are present in patients. To determine this, the presence of T cell response against the candidate antigens by patient blood-derived peripheral blood mononuclear cells (PBMC) is assessed by ELISPOT assays upon stimulation with the peptides. This assay detects and quantifies cytokine release (in this case, IFNγ and IL-5) from specific activated T cells.
Data were obtained from blood samples (25 ml) from 44 PD patients and 24 age-matched controls. The experiments were conducted blindly. PBMCs from these samples were isolated and exposed to pools comprising the 122 candidate class I and class II antigens and phosphorylated S129 epitopes generated in Subaim 1. For the PBMCs responsive to the pooled peptides, the response was then deconvoluted to identify individual epitopes.
PMBC fractions are recovered by standard methods with Ficoll gradient and T cells expansion (Oseroff et al., 2010). The methods for the analysis of T cell reactions and measurement of cytokines production using the enzyme-linked immunosorbent spot (ELISPOT) assay are published in analogous experiments to discover antigens in multiple sclerosis (Lolli et al., 2013) and in hay fever allergens (Oseroff et al., 2010). T cell responses are determined by measuring IFNγ and IL-5 release by ELISPOT. Statistical analysis of differences between populations is expected to be non-parametric and analyzed with the U-Mann-Whitney test. If there were a normal distribution of response, which is a priori unlikely as some patients have no T cell response, with an SD=1, 8 patients per group would be required to provide a p>90% that the study detect a >2 fold difference at a two-sided 0.05 significance level.

[2] = system: peripheral blood mononuclear cells (PBMC), T cells; experiment: ELISpot assay, gamma-interferon release (SFC) after stimulation with a-synuclein epitope pools; conditions: for IFNg Peptide + (donors positive to the peptide): of donors tested (peptide); for IFNg Peptide +: number of donors positive to the single peptide
Procedure, shortened: (§1)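 Ficoll-isolated PBMC, PD vs age-matched controls, blinded; peptide pools (122 candidates + pS129 epitopes), 22 h, 37 C. Positive pools deconvoluted.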

[3] = system: peripheral blood mononuclear cells (PBMC), T cells; experiment: ELISpot assay, IL-5 release (SFC) after stimulation with a-synuclein epitope pools; conditions: for IL-g Peptide + (donors positive to the peptide): of donors tested (peptide); for IL-g Peptide +: number of donors positive to the single peptide
Procedure, shortened: as §1

[4] = Normals Summary, single peptide
[5] = Patients Summary, PD patients, single peptide
[6] = second 'Pool Stimulated' section (from r296), 12 donors tested
[7] = peptide + / donors tested (peptide), second 'Pool Stimulated' section (from r296), 12 donors tested
[8] = single peptide, second 'Pool Stimulated' section (from r296), 12 donors tested

Substance | IFNg Peptide + (donors positive to the peptide) ([2]; Patients Summary, PD patients) | IFNg Avg SFC [2, 5] [SFC] | IFNg Response Frequency [2, 5] [%] | IFNg Total SFC [2, 5] [SFC] | IL-g Peptide + (donors positive to the peptide) ([3]; Patients Summary, PD patients) | IL-g Response Frequency [3, 5] [%] | IL-g Total SFC [3, 5] [SFC] | Peptides + in Patients & Normals [1] | IFNg Peptide + [2, 6] | IFNg Response Frequency [2, 7] [%] | IFNg Total SFC [2, 8] [SFC] | IL-g Peptide + [3, 6] | IL-g Response Frequency [3, 7] [%] | IL-g Total SFC [3, 8] [SFC] | also measured
VLYVGSKTK (listed as Homo sapiens) |  |  |  |  |  |  |  |  |  |  |  |  |  |  | epitope identified by deconvolution of T cell response, in words ([1]; PD patients, region including Y39): antigenic
3521.001 (VFMKGLSKA; listed as Homo sapiens) | 1 | 75 | 33 | 75 | 1 | 33 | 634 | 1 |  |  |  |  |  |  | IFNg Peptide + (donors positive to the peptide) ([2]; Normals Summary): 1; IFNg Avg SFC [2, 4]: 220 SFC; IFNg Response Frequency [2, 4]: 100%; IFNg Total SFC [2, 4]: 220 SFC; IL-g Peptide + (donors positive to the peptide) ([3]; Normals Summary): 1; IL-g Avg SFC [3, 4]: 193 SFC; IL-g Response Frequency [3, 4]: 100%; IL-g Total SFC [3, 4]: 193 SFC; IL-g Avg SFC [3, 5]: 634 SFC
3521.0017 (FMKGLSKAK; listed as Homo sapiens) | 0 |  | 0 | 0 | 0 | 0 | 0 | 0 |  |  |  |  |  |  | IFNg Peptide + (donors positive to the peptide) ([2]; Normals Summary): 1; IFNg Avg SFC [2, 4]: 46.7 SFC; IFNg Response Frequency [2, 4]: 100%; IFNg Total SFC [2, 4]: 46.7 SFC; IL-g Peptide + (donors positive to the peptide) ([3]; Normals Summary): 0; IL-g Response Frequency [3, 4]: 0%; IL-g Total SFC [3, 4]: 0 SFC
3521.008 (VAAAEKTKQGVAEAA; listed as Homo sapiens) | 1 | 150 | 33 | 150 | 0 | 0 | 0 | 0 | 0 | 0 | 0 | 0 | 0 | 0 | 
3521.007 (GVVAAAEKTK; listed as Homo sapiens) | 2 | 113 | 67 | 225 | 1 | 33 | 23 | 0 | 0 | 0 | 0 | 0 | 0 | 0 | IL-g Avg SFC [3, 5]: 23 SFC
3521.0066 (KAKEGVVAA; listed as Homo sapiens) | 0 |  | 0 | 0 | 0 | 0 | 0 | 0 | 0 | 0 | 0 | 0 | 0 | 0 | 
3521.0053 (KAKEGVVAAA; listed as Homo sapiens) | 0 |  | 0 | 0 | 0 | 0 | 0 | 0 | 0 | 0 | 0 | 0 | 0 | 0 | 
